Experimental data from paper PMC13499021, “Cellular Assays for Dynamic Quantification of Deubiquitinase Activity and Inhibition” (Journal of molecular biology, 2023).

What was measured:
Format in all cases: cell-based, SARS-CoV-2
[1] = test system: SARS2 PL^pro P248L
[2] = test system: SARS2 PL^pro Y268C
[3] = test system: SARS2 PL^pro Q269R
[4] = test system: SARS2 PL^pro Y264H
[5] = test system: SARS2 PL^pro L162F
[6] = test system: SARS2 PL^pro N267K
[7] = test system: SARS2 PL^pro N267D
[8] = test system: SARS2 PL^pro Y268H

## GRL0617
[1]
  decrease in potency: > 10 fold
  resistance phenotype in dose response curves: near-complete resistance
[2]
  decrease in potency: > 10 fold
  resistance phenotype in dose response curves: near-complete resistance
[3]
  impact of mutation on GRL0617 potency: little impact
[4]
  decrease in potency: > 10 fold
  resistance phenotype in dose response curves: near-complete resistance
[5]
  increase in IC50: ~8 fold
[6]
  impact of mutation on GRL0617 potency: little impact
[7]
  impact of mutation on GRL0617 potency: little impact
[8]
  decrease in potency: > 10 fold
